Laboratory results as given in patent US20090030068A1, “Antitumour Compounds” (PHARMA MAR, S.A., priority 2005, published 2009).
≈ marks a conversion by molar mass, not a printed value.

Columns and labels:
L1210 cells = details: cited from earlier work
P388 cancer cells = details: cited from earlier work
MDA-MB-231 cancer cells = details: cited from earlier work
HCT-8 cancer cells = details: cited from earlier work
A549 cancer cells = details: cited from earlier work
P388 leukemia = details: cited from earlier work; for antitumor activity / toxicity: P388 leukemia in CDF1 mice
KB cells = details: cited from earlier work
HT29 = experiment: SRB colorimetric cell growth inhibition assay, HT29; assay type: cell-based
Protocol: (§1) The assays of antitumor activity allow detecting extracts or compounds with cytotoxic activity (cell death) or cytostatic activity (growth inhibition) in in vitro cultures of tumor cells of human origin.
(§2) The quantification of cell growth in vitro was carried out by means of a calorimetric assay with sulforhodamine B (SRB) (following an adaptation of the previously described method by Philip Skehan et al. 1990, J. Natl. Cancer Inst., 82:1107-1112).
(§3) This type of assay uses 96-well culture microplates, (Mosmann, 1983, Faircloth, 1988). Most of the cell lines used are obtained from the American Type Culture Collection (ATCC) and derived from different types of human tumors.
(§4) The cell cultures are maintained in DMEM culture medium (supplemented with 10% fetal bovine serum (FBS), 1% penicillin/streptomycin 1% glutamine) at 37° C., 5% CO2 and 98% humidity.
(§5) For the assays, the cells are trypsinized and seeded in 96-well microplates at different concentrations depending on the cell line, and are incubated for 24 hours in an active ingredient-free medium for their stabilization. The cultures are then treated (final concentration varies depending on the type of assay) with carrier (DMSO:DMEM, 1:1) or active ingredient. After 48 hours of exposure to the active ingredient, the antitumor effect is measured by means of the previously mentioned SRB method, which basically consists of: fixing the cells with a 1% glutaraldehyde solution (30 min, RT), washing of the fixer in PBS (3 washings, RT), staining the cultures with a 0.4% SRB solution (30 min, RT), washing of the colorant in 1% acetic acid solution (3 washings, RT), air-drying the plates and final extraction of the colorant with Tris buffer. The quantification of the assay is carried out by means of optical density reading of the plates in a spectrophotometric microplate reader at a single wavelength of 490 nm. […]

MDA-MB-231 = experiment: SRB colorimetric cell growth inhibition assay, MDA-MB-231; assay type: cell-based
Protocol: as §1, §2, §3, §4, §5

A549 = experiment: SRB colorimetric cell growth inhibition assay, A549; assay type: cell-based
Protocol: as §1, §2, §3, §4, §5

Molecule: CO[C@H]1C[C@H](CC[C@H](C)[C@H](O)[C@H](C)[C@H]2OC(=O)/C(C)=C/C[C@H](O)C[C@@H]3C=CC[C@@H](C[C@H](OC)[C@@H](C)[C@@H](O)C[C@@H](O)[C@H](C)[C@@H]([C@@H](C)[C@@H](O)[C@@H](C)CC[C@H]4C[C@H](OC)C[C@H](C)O4)OC(=O)/C(C)=C/C[C@H](O)C[C@@H]4C=CC[C@@H](C[C@H](OC)[C@@H](C)[C@@H](O)C[C@@H](O)[C@@H]2C)O4)O3)O[C@@H](C)C1 [Misakinolide A]
- IC50 (cytotoxicity) (L1210 cells): 0.035 µg/mL (≈ 0.0262 µM)
- in vitro antitumor activity (P388 cancer cells): in vitro antitumor activity
- in vitro antitumor activity (MDA-MB-231 cancer cells): in vitro antitumor activity
- in vitro antitumor activity (HCT-8 cancer cells): in vitro antitumor activity
- in vitro antitumor activity (A549 cancer cells): in vitro antitumor activity
- T/C (P388 leukemia; dose of 0.1 mg/kg (mouse), P388 leukemia): 140%

Molecule: CO[C@H]1C[C@H](CC[C@H](C)[C@H](O)[C@H](C)[C@H]2OC(=O)/C=C/C(C)=C/C[C@H](O)C[C@@H]3C=CC[C@@H](C[C@H](OC)[C@@H](C)[C@@H](O)C[C@@H](O)[C@H](C)[C@@H]([C@@H](C)[C@@H](O)[C@@H](C)CC[C@H]4C[C@H](OC)C[C@H](C)O4)OC(=O)/C=C/C(C)=C/C[C@H](O)C[C@@H]4C=CC[C@@H](C[C@H](OC)[C@@H](C)[C@@H](O)C[C@@H](O)[C@@H]2C)O4)O3)O[C@@H](C)C1 [Swinholide A]
- IC50 (cytotoxicity) (L1210 cells): 0.03 µg/mL (≈ 0.0216 µM)
- IC50 (cytotoxicity) (KB cells): 0.04 µg/mL (≈ 0.0288 µM)
- antitumor activity (P388 leukemia): did not show promising antitumor activity
- toxicity (P388 leukemia): toxic

Molecule: isoswinholide A
- IC50 (cytotoxicity) (L1210 cells): 1.35 µg/mL
- IC50 (cytotoxicity) (KB cells): 1.1 µg/mL
- antitumor activity (P388 leukemia): did not show promising antitumor activity
- toxicity (P388 leukemia): toxic

Molecule: COC1CC(C)OC(CCC(C)C(O)C(C)C2OC(=O)/C=C\C(C)=C\CC(O)CC3C=CCC(CC(OC)C(C)C(O)CC(O)C(C)C(C(C)C(O)C(C)CCC4CC(O)CC(C)O4)OC(=O)/C=C\C(C)=C\CC(O)CC4C=CCC(CC(OC)C(C)C(O)CC(O)C2C)O4)O3)C1 (stereo not shown) [Swinholide C]
- IC50 (cytotoxicity) (L1210 cells): 0.14 µg/mL (≈ 0.102 µM)
- IC50 (cytotoxicity) (KB cells): 0.05 µg/mL (≈ 0.0363 µM)

Molecule: COC1CC(C)OC(CCC(C)C(O)C(C)C2OC(=O)/C=C/C(C)=C/CC(O)CC3C=CCC(CC(OC)C(C)C(O)CC(O)C(C)C(C(C)C(O)C(C)CCC4CC(OC)CC(C)O4)OC(=O)/C(C)=C/CC(O)CC4C=CCC(CC(OC)C(C)C(O)CC(O)C2C)O4)O3)C1 (stereo not shown) [Compound A]
- TGI (HT29; Colon HT29, 48 hours of exposure, concentration causing total growth inhibition): 8.81E−7 Molar
- LC50 (concentration killing 50% of cells) (HT29; Homo sapiens, HT-29, 48 h, read-out: LC50): 2200 nM
- GI50 (HT29; Homo sapiens, HT-29, Colon HT29, 48 hours of exposure, concentration causing 50% growth inhibition): 338 nM
- TGI (MDA-MB-231; Breast MDA-MB-231, 48 hours of exposure, concentration causing total growth inhibition): 2.35E−6 Molar
- CC50 (MDA-MB-231; Homo sapiens, MDA-MB-231, 48 h, read-out: LC50): 4770 nM
- GI50 (MDA-MB-231; Homo sapiens, Breast MDA-MB-231, 48 hours of exposure, concentration causing 50% growth inhibition): 808 nM
- CC50 (A549; Homo sapiens, A549, 48 h, read-out: LC50): 529 nM
- GI50 (A549; Homo sapiens, NSCL (Lung) A549, 48 hours of exposure, concentration causing 50% growth inhibition): 228 nM
- TGI (A549; NSCL (Lung) A549, 48 hours of exposure, concentration causing total growth inhibition): 3.38E−7 Molar
